# According to EP3046573B1, “AMYLIN ANALOGUES” (Zealand Pharma A/S, priority 2013, dated 2015):
# Numbered stars: 1 amine (or outer) side, 2 acyl side, 3 side chain; on linkers, the order of the positions; unused ones are H or OH. Bridge positions count the residues as written; N and C are the ends. Square brackets hold non-standard residues; d marks the D form. Peptide text beside a SMILES is read from it. * marks the point of attachment. C20 diacid = O=C(O)CCCCCCCCCCCCCCCCCCC(=O)*; γGlu = O=C(O)[C@H](CCC(=O)[*:2])N[*:1]; NMeI = CC[C@H](C)[C@H](NC)C(=O)O; Sar = CNCC(=O)O
# Tests used:
# [1] = molecular target: T1, human calcitonin receptor (hCTR2) (Homo sapiens, UniProt P30988); test: hCTR2 assay: induction of cAMP (AlphaScreen cAMP Assay kit) in COS7 cells expressing hCTR2; format: cell-based; conditions: cAMP induction in COS7 cells expressing hCTR2; average of a minimum of 3 determinations; read-out: hCTR2 EC50
# T1 construct: expressed in transfected cells
# T1 sequence (P30988 25-474): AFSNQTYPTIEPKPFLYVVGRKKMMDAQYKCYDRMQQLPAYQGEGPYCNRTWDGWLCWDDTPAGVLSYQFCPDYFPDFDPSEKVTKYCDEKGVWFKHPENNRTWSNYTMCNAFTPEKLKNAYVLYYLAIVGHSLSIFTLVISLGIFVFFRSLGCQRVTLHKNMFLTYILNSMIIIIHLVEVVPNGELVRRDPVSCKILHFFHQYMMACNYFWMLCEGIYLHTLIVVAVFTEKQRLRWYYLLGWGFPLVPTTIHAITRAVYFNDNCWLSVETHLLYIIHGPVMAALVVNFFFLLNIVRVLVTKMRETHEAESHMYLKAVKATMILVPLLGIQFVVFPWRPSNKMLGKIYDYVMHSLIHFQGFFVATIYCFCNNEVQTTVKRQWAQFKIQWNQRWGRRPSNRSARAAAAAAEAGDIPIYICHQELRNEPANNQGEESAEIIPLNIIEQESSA
# How it was run: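 cAMP induction was measured by AlphaScreen in COS7 cells stably expressing hCTR2 without RAMPs, after 15 min at 37° C with increasing peptide concentrations, 100 µM IBMX and 0.1% casein (Tyrode, pH 7.4). A 4-parameter logistic fit gave EC50 and % efficacy versus pramlintide.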
# [2] = Solubility assessment (turbidity absorbance at 325 nm); format: physicochemical; conditions: stock 2 mg/ml diluted 1:1, ambient temperature (typically 25°C), n=1; for Solubility, Acetate buffer pH 4: 100 mM acetate buffer pH 4.0; for Solubility, Acetate buffer pH 5: 100 mM acetate buffer pH 5.0; for Solubility, Histidine buffer pH 6: 100 mM histidine buffer pH 6.0; for Solubility, Histidine buffer pH 7: 100 mM histidine buffer pH 7.0; for Solubility, Phosphate buffer pH 6: 100 mM phosphate buffer pH 6.0; for Solubility, Phosphate buffer pH 7: 100 mM phosphate buffer pH 7.0; for Solubility, Phosphate buffer pH 7.5: 100 mM phosphate buffer pH7.5
# How it was run: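 Read-out: turbidity as absorbance at 325 nm (280 nm also read), single samples, ambient temperature of typically 25°C. Samples were a 1:1 mix of 2 mg/ml stock (water, pH 2.5) with 100 mM acetate, histidine or phosphate buffers spanning pH 4.0–7.5. Cut-off: A325 ≤ 0.02 indicates ≥ 1 mg/ml.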
SMILES,EC50 [1],"Solubility, Acetate buffer pH 4 [2]","Solubility, Acetate buffer pH 5 [2]","Solubility, Histidine buffer pH 6 [2]","Solubility, Histidine buffer pH 7 [2]","Solubility, Phosphate buffer pH 6 [2]","Solubility, Phosphate buffer pH 7 [2]","Solubility, Phosphate buffer pH 7.5 [2]"
"CC[C@H](C)[C@@H](C(=O)N[C@@H](CC(C)C)C(=O)N[C@@H](CO)C(=O)N[C@@H](CO)C(=O)N[C@H](C(=O)N[C@@H](CC(N)=O)C(=O)N[C@H](C(=O)NCC(=O)N[C@@H](CO)C(=O)N[C@@H](CC(N)=O)C(=O)N[C@H](C(=O)N1CCC[C@H]1C(N)=O)[C@@H](C)O)C(C)C)[C@@H](C)O)N(C)C(=O)CN(C)C(=O)[C@H](CC(N)=O)NC(=O)[C@H](CC(N)=O)NC(=O)[C@H](CO)NC(=O)[C@H](CO)NC(=O)[C@H](Cc1c[nH]cn1)NC(=O)[C@H](Cc1c[nH]cn1)NC(=O)[C@H](CC(C)C)NC(=O)[C@H](Cc1ccccc1)NC(=O)[C@H](CCC(=O)O)NC(=O)[C@H](C)NC(=O)[C@H](CC(C)C)NC(=O)[C@H](CCCNC(=N)N)NC(=O)[C@H](CCC(N)=O)NC(=O)[C@@H](NC(=O)[C@H](C)NC(=O)[C@@H]1CSSC[C@H](NC(=O)[C@H](CCCNC(=N)N)NC(=O)CC[C@H](NC(=O)CCCCCCCCCCCCCCCCCCC(=O)O)C(=O)O)C(=O)N[C@@H](CC(N)=O)C(=O)N[C@@H]([C@@H](C)O)C(=O)N[C@@H](C)C(=O)N[C@@H]([C@@H](C)O)C(=O)N1)[C@@H](C)O [Compound 51, [19CD]-isoGlu-RC()NTATC()ATQRLAEFLHHSSNN-Gly(Me)-Ile(Me)-LSSTNVGSNTP-NH2] ({C20 diacid-γGlu}-RCNTATCATQRLAEFLHHSSNN[Sar][NMeI]LSSTNVGSNTP-NH2; disulfide 2-7)",0.093 nM,II (II indicates solubility ≤ 1 mg/ml),II (II indicates solubility ≤ 1 mg/ml),II (II indicates solubility ≤ 1 mg/ml),II (II indicates solubility ≤ 1 mg/ml),II (II indicates solubility ≤ 1 mg/ml),II (II indicates solubility ≤ 1 mg/ml),II (II indicates solubility ≤ 1 mg/ml)
"CC[C@H](C)[C@@H](C(=O)N[C@@H](CC(C)C)C(=O)N[C@@H](CO)C(=O)N[C@@H](CO)C(=O)N[C@H](C(=O)N[C@@H](CC(N)=O)C(=O)N[C@H](C(=O)NCC(=O)N[C@@H](CO)C(=O)N[C@@H](CC(N)=O)C(=O)N[C@H](C(=O)N1CCC[C@H]1C(N)=O)[C@@H](C)O)C(C)C)[C@@H](C)O)N(C)C(=O)[C@H](C)NC(=O)CN(C)C(=O)[C@H](Cc1ccccc1)NC(=O)[C@H](CO)NC(=O)[C@H](CO)NC(=O)[C@H](Cc1c[nH]cn1)NC(=O)[C@H](Cc1c[nH]cn1)NC(=O)[C@H](CC(C)C)NC(=O)[C@H](Cc1ccccc1)NC(=O)[C@H](CCC(=O)O)NC(=O)[C@H](C)NC(=O)[C@H](CC(C)C)NC(=O)[C@H](CCCNC(=N)N)NC(=O)[C@H](CCC(N)=O)NC(=O)[C@@H](NC(=O)[C@H](C)NC(=O)[C@@H]1CSSC[C@H](NC(=O)[C@H](CCCNC(=N)N)NC(=O)CC[C@H](NC(=O)CCCCCCCCCCCCCCCCCCC(=O)O)C(=O)O)C(=O)N[C@@H](CC(N)=O)C(=O)N[C@@H]([C@@H](C)O)C(=O)N[C@@H](C)C(=O)N[C@@H]([C@@H](C)O)C(=O)N1)[C@@H](C)O [Compound 52, [19CD]-isoGlu-RC()NTATC()ATQRLAEFLHHSSF-Gly(Me)-A-Ile(Me)-LSSTNVGSNTP-NH2] ({C20 diacid-γGlu}-RCNTATCATQRLAEFLHHSSF[Sar]A[NMeI]LSSTNVGSNTP-NH2; disulfide 2-7)",0.076 nM,SS (SS indicates solubility ≥ 1mg/ml),SS (SS indicates solubility ≥ 1mg/ml),SS (SS indicates solubility ≥ 1mg/ml),SS (SS indicates solubility ≥ 1mg/ml),SS (SS indicates solubility ≥ 1mg/ml),SS (SS indicates solubility ≥ 1mg/ml),SS (SS indicates solubility ≥ 1mg/ml)
